These are literature values, as cited in patent US20160114057A1, “MODULAR PROTEIN DRUG CONJUGATE THERAPEUTIC” (ZYMEWORKS INC., priority 2013, published 2016).

Where two headings read alike, the source gives them in different places. Where a SMILES comes first, the peptide text is derived from it. [ ]: non-standard residue; d: D form. Aoe = N[C@@H](CCCCCC(=O)[C@@H]1CO1)C(=O)O; Aib = CC(C)(N)C(=O)O

For data set [1] the following is noted: human, in vivo.
For data set [2] the following is noted: KB-31 (melanoma).
Experiment in data set [3]: not given
The source holds these as a separate data set.

The conditions of data set [4]: human.
The test system of data set [5] is NCI tumor panel (60 cell line). The note with it: NCI tumor panel; range over cell lines.
Experiment in data set [6]: not given
The source holds these as a separate data set.

For data set [7] the following is noted: i.p. in mice.
The test system of a further data set is KB. As to conditions: KB.
A further data set has as its system HT-29 (colon). The note with it: cell culture.
Another data set relates to tumors in animal models. The note with it: tumor types as in Table 1.
The subject of another data set is MEL-28. As to conditions: cell culture.
The subject of data set [8] is A-549 (epidermoid carcinoma).
The next data set concerns the target histone deacetylase. As to conditions: inhibits histone deacetylase.
For data set [9], the system named is CD33+ cells (HL-60, NOMO-1, and NKM-1). The note with it: at 100 ng/mL.

On to `C/C(=C\c1csc(C)n1)[C@@H]1C[C@@H]2O[C@]2(C)CCC[C@H](C)[C@H](O)[C@@H](C)C(=O)C(C)(C)[C@@H](O)CC(=O)O1` [Epothione B], for which, in data set [1], the “clinical responses (in words)” value is reported as “partial”. Also, the IC50 in the data set on HCT-116 is 0.42 nM; with MCF-7 (breast), 0.18 nM; in data set [2] it was 0.19 nM; with MCF-7/ADR, 2.92 nM. The “activity in cell culture (in words)” value in the data set on various tumor cell lines is “broad activity”. Further, for the setting “in vivo”, the t1/2 was 2.5 h.
Consider `COc1c(O)c2c(c3cc(C(=O)N4CCc5c4c(O)c(OC)c4[nH]c(C(=O)N6CC7CC78C6=CC(=O)c6[nH]cc(C)c68)cc54)[nH]c13)CCN2C(C)=O` (stereo not drawn) [Gilvusmycin], for which the IC50 with MKN28 (GI) is 0.75 MKN28 (GI); ng/mL; in the data set with P388, 0.08 P388 ng/mL; in the data set with A431 (EC), 0.72 A431 (EC) ng/mL; with K562 (CML) it was 0.86 K562 (CML) ng/mL; with various tumor cell lines (P388, K562, A431, MKN28, read-out: IC50 (for all)), under 1 nM.
As for `C/C=C1\NC(=O)[C@H]2CSSCC/C=C/[C@H](CC(=O)N[C@H](C(C)C)C(=O)N2)OC(=O)[C@H](C(C)C)NC1=O` [FR-901228], in [3], the “Toxicity (in words)” value was “toxicity, lymphoid”. For the same compound, the dose limiting toxicity entry in [4] is given as “(human) 18 mg/Kg;”. In addition, the IC50 in data set [5] was 0.56 to 4.1 nM. For the same compound, the “toxic dose (LD50)” value in data set [6] (ip) is 6.4 mg/kg; in [6] (iv) it was 10 mg/kg. Also, the t1/2 entry (human) is reported as “t1/2 of 8 hrs”.
Regarding `NC[C@H]1[C@H]2CN3C(=O)c4cccn4[C@H]4NC(N)=NC43[C@H]2[C@@]2(N=C(N)N[C@@H]2O)[C@H]1Cl` (stereo partly drawn) [Palauamine], the IC50 in the data set with A549 (lung) (cell culture, A549) is 0.2 A549 (lung) micrograms/mL; in the data set with P388 (cell culture) it was 0.1 P388 micrograms/mL; with KB (cell culture), 10 KB micrograms/mL; with HT-29 (colon), 2 HT-29 (colon) micrograms/mL. Also, in data set [7], the LD50 result was “is 13 mg/Kg”.
Consider `C=CCNC1=C2C[C@@H](C)C[C@H](OC)[C@H](O)[C@@H](C)/C=C(\C)[C@H](OC(N)=O)[C@@H](OC)/C=C\C=C(/C)C(=O)NC(=CC1=O)C2=O` [Variant 17-AAG], for which the “activity in animal models (in words)” value in the data set with tumors in animal models is “models active”. The t1/2 (i.v.) was about 1.5 h.
Regarding `CC[C@@H]1/C=C/C=C/C[C@H](C)[C@@H](O)[C@](C)(O)C(=O)[C@H](C)[C@@H](O)[C@H](C)C(=O)[C@H](C)[C@@H](O)[C@H](C)/C=C/C(=O)O[C@H]2[C@@H](C)[C@@H](CC1)O[C@@]1(CC[C@@H](C)[C@@H](C[C@H](C)O)O1)[C@@H]2CC` [NK-1301129], the “Activity (IC50)” value in the data set with lung is on record as 8.5 ng/mL lung; with colon it was 25 ng/mL colon.
As for `CCC1/C=C/C=C/CC(C)C(O)C(C)(O)C(=O)CC(O)C(C)C(O)C(C)C(O)C(C)/C=C/C(=O)OC2C(C)C(CC1)OC1(CCC(C)C(CC(C)O)O1)C2C` (stereo not drawn) [BE-56384], the IC50 in the data set on DLD-1 is reported as 34 DLD-1 ng/mL; in the data set on PC-13, 0.12 PC-13 ng/mL; in the data set with P388, 0.1 P388 ng/mL; in the data set on MKM-45, 0.12 MKM-45 ng/mL; in the data set on colon 26 it was 0.29 colon 26 ng/mL.
As for `C=C1C[C@@H]2CCO[C@H]3[C@@H]4C[C@H]5CC[C@H](CC(=O)C[C@@H]6[C@@H](OC)[C@@H](C[C@H](O)CO)O[C@H]6C[C@H]6O[C@@H](CC[C@@H]1O2)C[C@@H](C)C6=C)O[C@@H]5[C@@H]1OCC[C@@H]3O[C@H]41` [Halichondrin B analogs], the “activity in animal models (in words)” value in the data set with tumors in animal models is given as “active (tumor”.
For the compound `CCSC1SCC2C(=O)N(C)C3(CC3C)C(=O)OCC(NC(=O)c3nc4ccccc4cc3O)C(=O)NC(C)C(=O)N(C)C1C(=O)N(C)C1(CC1C)C(=O)OCC(NC(=O)c1nc3ccccc3cc1O)C(=O)NC(C)C(=O)N2C` (stereo not drawn) [SW-163E], the “Toxicity (in words)” value in data set [3] is given as “low toxicity (mice”. Further, the IC50 with P388 (read-out: Activity (IC50)) was 0.3 nM; in the data set on colon it was 1.6 nM; with KB (read-out: Activity (IC50)) it was 0.4 nM; with HL-60 it was 1.3 nM; in the data set with A2780, 0.2 nM.
In the case of `C=CC(C)(C)OC[C@H]1NC(=O)[C@H]([C@@H](C)OC(C)(C)C=C)NC(=O)C2CSC(N2)[C@@H](Cc2ccccc2)NC(=O)[C@@H]2CCCN2C(=O)C(C)NC(=O)[C@H]([C@@H](C)CC)NC1=O` (stereo partly drawn) [Trunkamide A], the IC50 in the data set with A549 (lung) (cell culture, A549) was 0.5 A549; micrograms/mL; with P388 (cell culture), 0.5 P388; micrograms/mL; in the data set on MEL-28, 1.0 MEL-28 micrograms/mL; in the data set on HT-29 (colon), 0.5 HT-29; micrograms/mL.
Consider `C/C1=C\C(C)C(C)OC(=O)CC(c2ccc(O)cc2)NC(=O)C(Cc2c(Cl)[nH]c3ccccc23)N(C)C(=O)C(C)NC(=O)C(C)C1` (stereo not drawn) [Chondramide D], for which the IC50 is 3 nM in the data set on U-937 (lymphoma); 14 nM in the data set with A549 (lung) (A549 (lung), read-out: Activity (IC50)); 15 nM in the data set on A-498 (kidney); 5 nM in data set [8]; 5 nM in the data set on SK-OV-3 (ovary).
In the case of `CC1(C)NC(=O)[C@H](CCCCCC(=O)[C@@H]2CO2)NC(=O)[C@H]2CCCN2C(=O)[C@H](Cc2ccccc2)NC1=O` [Chlamydocin] (cyclo([Aib]F[dP][Aoe])), the IC50 on histone deacetylase was 1.3 nM.
On to gemtuzumab ozogamicin, for which the “Toxicity (in words)” value in data set [3] is given as “mild toxicity”. For the same compound, the “killing of CD33+ cells (in words)” value in data set [9] is listed as “Kills CD33+ cells”.
